The values that follow come from paper PMC9643853, “Synthesis and evaluation of 3-alkynyl-5-aryl-7-aza-indoles as broad-spectrum antiviral agents” (Frontiers in Chemistry, 2022).

Read-outs that look alike come from different tables or passages of the source. Bounds are passed on as bounds.

As usually defined, the EC50 is the midpoint of the concentration-response curve.

The nature of data set [1]: in vitro. To be noted: human.
Data set [2] can be described thus: in vitro. As to conditions: human. The source holds these as a separate data set.
A further data set relates to RSV-A. The data set can be described thus: RSV-A cytopathic effect (CPE) reduction assay in HEp-2 cells, MTS read-out. The format is cell-based, human respiratory syncytial virus, RSV-A strain Long. To be noted: for EC50: read-out: RSV-A EC50.
In the next data set the test system is VEEV (TC-83). As to the kind of experiment: microbe, parasite or virus in culture. To be noted: Venezuelan equine encephalitis virus, U-87 MG, 18 h, read-out: VEEV EC50. The format is cell-based.
[3] abbreviates: human respiratory syncytial virus, HEp-2, 96 h.
Where [4] appears, read: HEp-2 cells, inhibition of virus-induced cytopathogenicity by 50%, MOI 0.01, 4 days.

Consider `CN(C)C(=O)c1cccc(-c2cnc3[nH]cc(C#Cc4cccnc4)c3c2)c1` [Compound 8j], for which the CC50 at 4 days in the data set “in vitro [1]” is > 50 µM. Further, in “in vitro [2]”, the CC50 was > 10 µM. Also, the EC50 in the data set with RSV-A (setting [3]) stood at 3650 ± 2280 nM; in the data set with VEEV (TC-83), 4.57 ± 4.87 µM.
Regarding `COc1cc(OC)cc(-c2cnc3c(c2)c(C#Cc2cccnc2)cn3Cc2ccccc2)c1` [Compound 7d], the CC50 at 4 days in “in vitro [1]” is > 50 µM. The CC50 in “in vitro [2]” is > 10 µM. The EC50 was 4880 ± 280 nM in the data set with RSV-A (setting [3]) and > 10 µM in the data set on VEEV (TC-83).
In the case of `O=C(NC1CC1)c1cccc(-c2cnc3[nH]cc(C#Cc4ccc(F)nc4)c3c2)c1` [Compound 9a], in “in vitro [1]”, the CC50 at 4 days is > 50 µM. Besides, the CC50 in “in vitro [2]” is > 10 µM. Moreover, the “loss in anti-RSV activity relative to compound 8f” value with RSV-A (HEp-2 cells) was found to be 10 fold. For the same compound, the values for the EC50 with RSV-A (setting [3]) and in the data set on VEEV (TC-83) were 1760 ± 910 nM and 6.54 ± 1.21 µM, respectively.
`Clc1cccc(-c2cnc3[nH]cc(C#Cc4cccnc4)c3c2)c1` [Compound 4h]: in “in vitro [1]”, the CC50 at 4 days is > 50 µM. Besides, the CC50 in “in vitro [2]” was > 10 µM. In addition, the figures for the 50% effective concentration (EC50) in the data set with RSV-A (setting [3]) and with VEEV (TC-83) were 2890 ± 2240 nM and > 10 µM, respectively.
The compound `COc1ccccc1-c1cnc2[nH]cc(C#Cc3cccnc3)c2c1` [Compound 4c] gave a CC50 at 4 days in “in vitro [1]” of 6 ± 5.66 µM. For the same compound, in the data set “in vitro [2]”, the CC50 was > 10 µM. For the same compound, the concentration for a half-maximal effect (EC50) with RSV-A (setting [3]) is 690 ± 320 nM; with VEEV (TC-83) it was 5.34 ± 1.87 µM.
For `CN1CCN(C)/C(=N/c2ccc([N+](=O)[O-])cc2C(=O)Nc2ccccc2)C1` [ML-336, (E)-2-((1,4-Dimethylpiperazin-2-ylidene)amino)-5-nitro-N-phenylbenzamide, reference compound], in “in vitro [2]”, the CC50 is > 10 µM. Besides, the half-maximal effective concentration (EC50) with VEEV (TC-83) was 0.04 ± 0.01 µM.
`COc1cc(OC)cc(-c2cnc3[nH]cc(C#Cc4ccsc4)c3c2)c1` [Compound 5f] had a CC50 at 4 days in “in vitro [1]” of 1.84 ± 0.95 µM. Moreover, the CC50 in “in vitro [2]” is > 10 µM. Moreover, the figures for the EC50 in the data set with RSV-A (setting [3]) and with VEEV (TC-83) were 310 ± 130 nM and 4.3 ± 0.47 µM, respectively.
`O=C(NC1CC1)c1cccc(-c2cnc3[nH]cc(C#Cc4ccsc4)c3c2)c1` [Compound 9e]: in the data set “in vitro [1]”, the CC50 at 4 days is > 50 µM. For the same compound, the CC50 in “in vitro [2]” was > 10 µM. Also, the EC50 with RSV-A (setting [3]) was 510 ± 160 nM; in the data set with VEEV (TC-83), > 10 µM.
With `C(#Cc1c[nH]c2ncc(-c3ccoc3)cc12)c1cccnc1` [Compound 4j], the CC50 at 4 days in “in vitro [1]” is > 50 µM. For the same compound, the CC50 in “in vitro [2]” was > 10 µM. The “anti-RSV activity (in words)” value in the data set on RSV-A (HEp-2 cells) is “completely devoid of anti-RSV activity”. The EC50 in the data set on RSV-A (setting [3]) is 47800 ± 3070 nM; with VEEV (TC-83), > 10 µM.
Turning to `COc1cc(OC)cc(-c2cnc3[nH]cc(C#Cc4cccc(Cl)c4)c3c2)c1` [Compound 5d], the CC50 at 4 days in the data set “in vitro [1]” is > 50 µM. For the same compound, the CC50 in “in vitro [2]” was > 10 µM. Besides, the “loss of activity against RSV-A relative to compound 4d” value with RSV-A (HEp-2 cells) amounted to 30 fold. In addition, the concentration giving a half-maximal response (EC50) came out at 16300 nM with RSV-A (setting [3]) and 6.13 ± 0.94 µM in the data set on VEEV (TC-83).
As for `COc1cccc(C#Cc2c[nH]c3ncc(-c4cc(OC)cc(OC)c4)cc23)c1` [Compound 5e], the CC50 at 4 days in “in vitro [1]” was > 50 µM. Also, the CC50 in the data set “in vitro [2]” was > 10 µM. Also, the “loss of activity against RSV-A relative to compound 4d” value in the data set with RSV-A (HEp-2 cells) amounted to 5 fold. Besides, the values for the 50% effective concentration (EC50) with RSV-A (setting [3]) and in the data set with VEEV (TC-83) were 2750 ± 240 nM and 6.29 ± 2.71 µM, respectively.
As for `NC(=O)c1ncn([C@@H]2O[C@H](CO)[C@@H](O)[C@H]2O)n1` [Ribavirin, reference compound], in “in vitro [1]”, the CC50 at 4 days is > 50 µM. For the same compound, in the data set with RSV-A (setting [3]), the EC50 stood at 3110 ± 1850 nM.
For the compound `COc1cc(OC)cc(-c2cnc3[nH]cc(C#Cc4ccccn4)c3c2)c1` [Compound 5a], the CC50 at 4 days in the data set “in vitro [1]” came out at 0.24 ± 0.23 µM. Moreover, the CC50 in the data set “in vitro [2]” was > 10 µM. Further, the values for the EC50 with RSV-A (setting [3]) and in the data set with VEEV (TC-83) were 80 nM and > 10 µM, respectively.
In the case of `COc1cc(-c2cnc3[nH]cc(C#Cc4cccnc4)c3c2)ccn1` [Compound 4g], in “in vitro [1]”, the CC50 at 4 days was > 50 µM. In addition, in the data set “in vitro [2]”, the CC50 is > 10 µM. In addition, the 50% effective concentration (EC50) in the data set on RSV-A (setting [3]) is 2710 ± 1010 nM; in the data set on VEEV (TC-83), > 10 µM.
With `Cc1ccc(CCCO)c(NCc2ccc3nc(NCCCN4CCOCC4)n(Cc4nc(C)ccc4O)c3c2)c1` [TMC353121, reference compound], the EC50 in the data set on RSV-A (setting [4]) amounted to 1.3 ± 0.8 nM.
With “dextran sulfate sodium salt [DS-10000, reference compound]”, in the data set with RSV-A (setting [4]), the half-maximal effective concentration (EC50) came out at 68 ± 45 nM.
